Experimental data from a melting point compilation (Tetko et al.; mined from patent text by program, amines drawn as free bases though some values may be those of a salt).

Q: Which melting point does the source give for `CC(=O)n1nc(-c2c(C)cc(C)c([N+](=O)[O-])c2C)n2nc(C(C)(C)C)cc12` here?
A: 169 to 171 °C

Q: With `Cn1cc(-c2cnc3c(c2)ncn3Cc2ccc3ncccc3c2)cn1` as the molecule, how does the melting point read?
A: 150 to 152 °C

Q: With `O=C1c2ccccc2S(=O)(=O)N1/C=C/CSc1nnnn1-c1ccccc1` as the molecule, how does the melting point read?
A: 191 to 193 °C

Q: For `CCCc1ccc(S(=O)(=O)c2ccccc2)cc1`, which melting point is on record?
A: 83 to 85 °C

Q: For `Nc1nc(NCCNCC(O)COc2ccccc2)c2ccccc2n1` (configuration not stated), which melting point is on record?
A: 152 to 156 °C

Q: With `Cc1c(C(C)(C)C)cc(C(C)C)c(-c2c(C(C)C)cc(C(C)(C)C)c(C)c2O)c1O` as the molecule, how does the melting point read?
A: 105 to 108 °C

Q: With `Cc1cccc(N2CC(c3cccc(-c4ccc(S(C)(=O)=O)cc4)c3)=CN2)n1` as the molecule, how does the melting point read?
A: 95 to 97 °C

Q: Which melting point does the source give for `Cc1ccc(-c2cccc(C(N)=NO)c2)cc1` here?
A: 134 to 136 °C

Q: With `COCCOc1cc(N(C)S(=O)(=O)c2cccs2)c2[nH]c(C(N)=O)cc2c1` as the molecule, how does the melting point read?
A: 214 to 215 °C

Q: Which melting point does the source give for `O=C(NCCO)c1cccc(-c2ccc3c(n2)C(Oc2ccc(Cl)cc2Cl)CC3)c1` (configuration not stated) here?
A: 181 to 182 °C

Q: With `CC(C)(C)C(=O)Nc1nc(O)c2cc(C#C[Si](C)(C)C)cnc2n1` as the molecule, how does the melting point read?
A: > 250 °C

Q: For `[N-]=[N+]=Nc1cc(Cl)nc(-c2ccc([N+](=O)[O-])o2)n1`, which melting point is on record?
A: 114 to 116 °C

Q: Which melting point does the source give for `CNC(=S)C1(c2ccc(C)cn2)CCCS1` (configuration not stated) here?
A: 134 °C

Q: For `CCOCc1nc2c(N)nc(C)cc2n1CCCCN`, which melting point is on record?
A: 108 to 111 °C

Q: For `CC(C)CC[C@@H]1[C@H](c2ccccc2)OC(=O)N1CCCN1CCCCC1` (racemic), which melting point is on record?
A: 111 to 112 °C

Q: Which melting point does the source give for `CCCc1nc(-n2c(C)ccc2C)c(C(=O)OC)[nH]1` here?
A: 175 to 176 °C

Q: For `C#CCn1c(-c2cccnc2)c(C)c2ccccc21`, which melting point is on record?
A: 104 to 105 °C

Q: With `CC(C)CN=C1C(c2ccccc2)=C(c2ccccc2)C(c2ccccc2)=C1c1ccccc1` as the molecule, how does the melting point read?
A: 158 °C

Q: With `CC(C)(C(=O)NO)C(O)Cc1ccccc1` (configuration not stated) as the molecule, how does the melting point read?
A: 95 to 96 °C

Q: Which melting point does the source give for `COc1cc2c(cc1OC)C(=O)C(C#N)C2` (configuration not stated) here?
A: 177 to 179 °C

Q: For `O=C1NC(=O)c2ccc(Br)cc2/C1=C/Nc1ccc(CN2CCCC2)cc1`, which melting point is on record?
A: 165 to 166 °C

Q: Which melting point does the source give for `CCCCC(Cn1cncn1)(C(=O)O)c1ccccc1OC` (configuration not stated) here?
A: 198 °C

Q: With `CCCCCCCCON1C(C)(C)CC(NC(=O)CCc2cc(-n3nc4ccccc4n3)c(O)c(C(C)(C)C)c2)CC1(C)C` as the molecule, how does the melting point read?
A: 153 to 159 °C

Q: Which melting point does the source give for `COC(=O)C(C(=O)O)=C1SC=CS1` here?
A: 48 to 51 °C

Q: Which melting point does the source give for `Cc1csc(-c2nnc(NC(C)c3ccccc3)c3ccccc23)c1` (configuration not stated) here?
A: 118 to 121 °C

Q: For `COc1ccc(C)cc1NC(=O)Nc1ccc(N2CCN(c3ncccn3)CC2)cc1`, which melting point is on record?
A: 220 to 221 °C

Q: Which melting point does the source give for `CC(C)(C)C1=C(c2cc(O)c3nc(-c4ccccc4)oc3c2)OCC1(C)C` here?
A: 160 to 161 °C

Q: Which melting point does the source give for `Cc1nsc(CCCOc2c(C)cc(-c3noc(C)n3)cc2C)n1` here?
A: 67 to 71 °C

Q: With `Cc1cc(S(F)(F)(F)(F)F)c(S(C)(=O)=O)cc1C(=O)NC(=N)N` as the molecule, how does the melting point read?
A: 254 to 256 °C

Q: Which melting point does the source give for `Cc1oc(-c2ccccc2)nc1CCC(O)c1ccc(CC2OC(=O)NC2=O)cc1` (configuration not stated) here?
A: 154 to 155 °C

Q: Which melting point does the source give for `COc1ccc(/C=C(\C#N)c2ccccn2)cc1OC1CCCC1` here?
A: 82.5 to 83 °C

Q: With `C=CCC12CCC(=O)C1(C)CCC1c3ccc(OC)cc3CCC12` (configuration not stated) as the molecule, how does the melting point read?
A: 75 to 77 °C

Q: With `CO[C@@H]1[C@@H](OC)[C@H](C)O[C@@H](ON=Cc2ccc(-c3cn(-c4ccc(OC(F)(F)F)cc4)cn3)cc2)[C@@H]1OC` as the molecule, how does the melting point read?
A: 178 °C

Q: Which melting point does the source give for `COC(=O)c1cc([N+](=O)[O-])c(C)s1` here?
A: 81 °C

Q: With `Fc1cc2c(Nc3ccc(Br)c(Br)c3)ncnc2cn1` as the molecule, how does the melting point read?
A: 262 to 264 °C

Q: With `CCc1ccc2c(c1)CCC21CCc2cc(CC)ccc21` as the molecule, how does the melting point read?
A: 236 to 239 °C

Q: For `COc1cccc2c1C(=O)N(C)CC(=O)N2`, which melting point is on record?
A: 208 to 210 °C

Q: Which melting point does the source give for `Cc1ccc(-c2ccc([Si](C)(C)C)cc2)nc1` here?
A: 66.1 °C

Q: Which melting point does the source give for `O=[PH](c1ccc2ccccc2c1)c1ccc2ccccc2c1` here?
A: 98.3 °C

Q: With `COC(=O)NCC1Cc2cc(Cl)c3ccccc3c2O1` (configuration not stated) as the molecule, how does the melting point read?
A: 128 to 130 °C

Q: Which melting point does the source give for `O=C(O)COc1ccc2c(-c3ccccc3F)noc2c1Cl` here?
A: 188 to 189 °C

Q: With `Cc1cc(N2CC=C(C(=O)O)CC2)c2cccc(-c3ccc(Cl)cc3Cl)c2n1` as the molecule, how does the melting point read?
A: 218 to 220 °C

Q: Which melting point does the source give for `CCOC(c1cccc(OCc2nc(-c3ccccc3)oc2C)c1)c1ccc(OC)cc1OCC(=O)O` (configuration not stated) here?
A: 129 to 130 °C

Q: Which melting point does the source give for `CONC1=NS(=O)(=O)c2cc(Cl)ccc2N1` here?
A: > 220 °C

Q: Which melting point does the source give for `O=C(O)c1ccc(-c2ccnc(-c3cc(-c4ccc(C(=O)O)s4)ccn3)c2)s1` here?
A: > 300 °C

Q: For `COc1ccc(-c2cc(CN)c(=O)n(Cc3ccc(Cl)cc3)n2)cc1F`, which melting point is on record?
A: 128 to 131 °C

Q: With `CCN1c2ncccc2C(=O)N(C)c2ccc(-c3cccn3C(C)=O)nc21` as the molecule, how does the melting point read?
A: 106 to 108 °C

Q: Which melting point does the source give for `COc1ccccc1-n1c(-c2sc(Nc3ccc(Cl)cc3)nc2C)nc2ccccc2c1=O` here?
A: 225 to 226 °C

Q: For `CCc1c(C(=O)O)nn(-c2ccc(Cl)cc2Cl)c1-c1ccc(Br)cc1`, which melting point is on record?
A: 218 °C

Q: Which melting point does the source give for `O=[N+]([O-])c1cc(O)c(O)c([N+](=O)[O-])c1` here?
A: 168 to 170 °C

Q: For `CCOC(=O)CCCCSc1nc2ccccc2[nH]1`, which melting point is on record?
A: 88 to 90 °C

Q: For `BrCc1cc2ccsc2c2ccccc12`, which melting point is on record?
A: 99 to 101 °C

Q: Which melting point does the source give for `COc1cc(OC)cc(C(=O)NCCCSc2ccncc2)c1` here?
A: 110 to 111 °C

Q: For `CCN(CC)CC(O)c1c[nH]c2c1ccc1c3ccccc3[nH]c12` (configuration not stated), which melting point is on record?
A: 148 to 150 °C

Q: With `Cc1c(CC(=O)O)c2cc(OCc3nc4ccccc4s3)ccc2n1Cc1ccccc1` as the molecule, how does the melting point read?
A: 186 to 188 °C

Q: Which melting point does the source give for `CCCCCCCCCCCCOCCOc1ccc(C(=O)OC)cc1` here?
A: 40 to 42 °C

Q: For `COc1ccccc1N1CCN(CNC(=O)c2ccc(Cl)cc2)CC1`, which melting point is on record?
A: 145 to 147 °C

Q: For `COC(=O)CCCc1cc2cc(Cl)ccc2n1S(=O)(=O)c1ccc(OC)cc1`, which melting point is on record?
A: 97 to 98 °C

Q: Which melting point does the source give for `CCOC(=O)C(C)Cc1ccc(-n2c(C)nn(-c3ccc(C#N)cc3)c2=O)cc1` (configuration not stated) here?
A: 124 to 128 °C

Q: Which melting point does the source give for `CCCCCCCCCCCCCCCCCCN(CCCCCCCCCCCCCCCCCC)CCCNC=O` here?
A: 42 to 46 °C

Q: With `CCCCc1oc2ccccc2c1C(=O)N(C)Cc1ccc2cc(O)ccc2c1` as the molecule, how does the melting point read?
A: 110 to 113 °C

Q: With `CCOC(=O)c1cn(CC)c2nc3ccccc3n2c1=O` as the molecule, how does the melting point read?
A: 252 to 253 °C

Q: For `CCC(=O)NCC=C1CCc2ccc3nc(CCCCc4ccccc4)oc3c21`, which melting point is on record?
A: 111 to 113 °C

Q: With `CS(=O)(=O)NCC1CC2C=CC1C2` (configuration not stated) as the molecule, how does the melting point read?
A: 60 to 62 °C

Q: With `CCOC(=O)c1c(C(F)(F)F)n(C)cc(-c2cc(OC(C)C)c(Cl)cc2F)c1=O` as the molecule, how does the melting point read?
A: 170 to 172 °C

Q: Which melting point does the source give for `COc1ccc2c(c1)CCc1c-2cc(-c2ccccc2)n1-c1ccc(O)c(C(=O)O)c1` here?
A: 233 to 234 °C

Q: For `COC(=O)c1sc2cc(O)ccc2c1C`, which melting point is on record?
A: 174 to 176 °C

Q: Which melting point does the source give for `CC(C)(C)C1Cc2cc(OCC(=O)O)c(Cl)c(Cl)c2C1=O` (configuration not stated) here?
A: 155 to 175 °C

Q: For `CC1(C)OC(=S)Nc2ccc(-c3cc(C#N)ccc3F)cc21`, which melting point is on record?
A: 250 to 251 °C

Q: For `CON1CCN2C(=O)C(c3cc(C)ccc3C)C(=O)N2CC1`, which melting point is on record?
A: 167 to 169 °C

Q: With `Cc1ccc(-c2cc(CCCO)nn2-c2ccc(S(N)(=O)=O)cc2)cc1` as the molecule, how does the melting point read?
A: 123 to 126 °C

Q: With `CC(C)(C)CN1C(=O)C2CC(c3ccc(N)cc3)(C2)C1=O` as the molecule, how does the melting point read?
A: 142 to 143 °C
